Reference: publication PMC12680189, “Aotaphenazine, a rare hydrophenazine, targets topoisomerase II with anticancer efficacy: In silico to in vitro evidence” (PLOS One, 2025)

Target: Topoisomerase II (Topo II)
Experiment: ELISA-based Topo II inhibition assay kit (Abcam), recombinant human enzyme, colorimetric
Assay type: biochemical

Question: For `O=c1oc(=O)c2c(ccc3nc4ccccc4[nH]c32)c1-c1ccccc1` [aotaphenazine], which IC50 is on record?
Answer: 45 nM
